Experimental data published in paper PMC2920070 (Journal of medicinal chemistry, 2010).
Converted amounts (≈) assume the structure as drawn.

Tests used:
NR1/NR2C = NR1/NR2C (Rattus norvegicus, UniProt P35439+Q00961); assay: Two-electrode voltage-clamp, recombinant NR1/NR2C in Xenopus oocytes; assay type: cell-based; settings: for response at saturating concentration, NR2C (fitted minimum): fit with variable minimum
NR1/NR2D = NR1/NR2D (Rattus norvegicus, UniProt P35439+Q62645); assay: Two-electrode voltage-clamp, recombinant NR1/NR2D in Xenopus oocytes; assay type: cell-based; settings: for GluR1/NR2D: (IC50 GluR1)/(IC50 NR2D) / NR2A/NR2D: (IC50 NR2A)/(IC50 NR2D): selectivity ratio; for response at saturating concentration, NR2D (fitted minimum): fit with variable minimum
GluR1 = GluR1 (Rattus norvegicus, UniProt P19490); assay: Two-electrode voltage-clamp, recombinant GluR1; assay type: cell-based
NR1/NR2A = NR1/NR2A (Rattus norvegicus, UniProt P35439+Q00959); assay: Two-electrode voltage-clamp, recombinant NR1/NR2A in Xenopus oocytes; assay type: cell-based; settings: for response at saturating concentration, NR2A (fitted minimum): fit with variable minimum, predicted
NR1/NR2B = NR1/NR2B (Rattus norvegicus, UniProt P35439+Q00960); assay: Two-electrode voltage-clamp, recombinant NR1/NR2B in Xenopus oocytes; assay type: cell-based; settings: for response at saturating concentration, NR2B (fitted minimum): fit with variable minimum, predicted
[1] = Maximum solubility by nephelometry; assay type: physicochemical; settings: oocyte recording solution with 1% DMSO, aqueous buffer, kinetic from dmso stock
GluR6 = GluR6 (Rattus norvegicus, UniProt P42260); assay: Two-electrode voltage-clamp, recombinant GluR6; assay type: cell-based; settings: 30 μM compound

NR1/NR2A, sequence (Q00959 23-1464, other chains not shown): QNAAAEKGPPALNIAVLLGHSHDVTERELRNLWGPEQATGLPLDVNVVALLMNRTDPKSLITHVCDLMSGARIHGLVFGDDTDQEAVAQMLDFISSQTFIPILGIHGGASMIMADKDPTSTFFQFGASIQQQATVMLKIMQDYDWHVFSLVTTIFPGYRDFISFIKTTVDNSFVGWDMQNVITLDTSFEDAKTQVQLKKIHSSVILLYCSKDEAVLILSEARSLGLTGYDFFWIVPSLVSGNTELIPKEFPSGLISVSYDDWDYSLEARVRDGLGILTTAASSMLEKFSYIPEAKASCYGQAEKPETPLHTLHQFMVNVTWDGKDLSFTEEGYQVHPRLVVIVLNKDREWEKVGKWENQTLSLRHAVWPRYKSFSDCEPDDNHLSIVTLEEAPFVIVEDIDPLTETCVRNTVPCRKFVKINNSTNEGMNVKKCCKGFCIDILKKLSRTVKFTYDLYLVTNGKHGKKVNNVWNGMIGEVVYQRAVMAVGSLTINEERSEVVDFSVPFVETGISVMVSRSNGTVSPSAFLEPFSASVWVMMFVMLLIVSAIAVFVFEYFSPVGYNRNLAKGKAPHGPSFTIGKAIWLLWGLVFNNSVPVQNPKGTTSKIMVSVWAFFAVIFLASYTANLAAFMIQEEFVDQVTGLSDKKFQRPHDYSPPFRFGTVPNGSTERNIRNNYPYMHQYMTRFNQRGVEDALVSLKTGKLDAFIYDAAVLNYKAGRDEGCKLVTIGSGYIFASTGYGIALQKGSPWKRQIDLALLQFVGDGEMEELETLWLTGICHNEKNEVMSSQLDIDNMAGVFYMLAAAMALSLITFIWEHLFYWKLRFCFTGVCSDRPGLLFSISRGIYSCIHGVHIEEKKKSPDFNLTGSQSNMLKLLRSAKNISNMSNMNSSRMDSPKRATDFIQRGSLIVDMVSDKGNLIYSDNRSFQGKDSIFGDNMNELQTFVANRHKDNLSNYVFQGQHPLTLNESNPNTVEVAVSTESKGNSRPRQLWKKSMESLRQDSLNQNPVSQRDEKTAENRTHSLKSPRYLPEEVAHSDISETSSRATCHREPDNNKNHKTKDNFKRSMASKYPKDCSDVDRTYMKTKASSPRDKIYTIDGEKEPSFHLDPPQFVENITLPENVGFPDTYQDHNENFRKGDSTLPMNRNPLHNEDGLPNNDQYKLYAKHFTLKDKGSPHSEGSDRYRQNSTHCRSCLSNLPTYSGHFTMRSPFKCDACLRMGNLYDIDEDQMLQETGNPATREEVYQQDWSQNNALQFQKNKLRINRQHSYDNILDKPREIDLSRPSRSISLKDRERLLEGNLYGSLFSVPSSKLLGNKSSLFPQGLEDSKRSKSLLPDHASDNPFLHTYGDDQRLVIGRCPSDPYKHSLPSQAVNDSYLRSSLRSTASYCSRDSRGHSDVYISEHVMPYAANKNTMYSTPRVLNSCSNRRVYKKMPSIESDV
NR1/NR2B, sequence (Q00960 27-1482, other chains not shown): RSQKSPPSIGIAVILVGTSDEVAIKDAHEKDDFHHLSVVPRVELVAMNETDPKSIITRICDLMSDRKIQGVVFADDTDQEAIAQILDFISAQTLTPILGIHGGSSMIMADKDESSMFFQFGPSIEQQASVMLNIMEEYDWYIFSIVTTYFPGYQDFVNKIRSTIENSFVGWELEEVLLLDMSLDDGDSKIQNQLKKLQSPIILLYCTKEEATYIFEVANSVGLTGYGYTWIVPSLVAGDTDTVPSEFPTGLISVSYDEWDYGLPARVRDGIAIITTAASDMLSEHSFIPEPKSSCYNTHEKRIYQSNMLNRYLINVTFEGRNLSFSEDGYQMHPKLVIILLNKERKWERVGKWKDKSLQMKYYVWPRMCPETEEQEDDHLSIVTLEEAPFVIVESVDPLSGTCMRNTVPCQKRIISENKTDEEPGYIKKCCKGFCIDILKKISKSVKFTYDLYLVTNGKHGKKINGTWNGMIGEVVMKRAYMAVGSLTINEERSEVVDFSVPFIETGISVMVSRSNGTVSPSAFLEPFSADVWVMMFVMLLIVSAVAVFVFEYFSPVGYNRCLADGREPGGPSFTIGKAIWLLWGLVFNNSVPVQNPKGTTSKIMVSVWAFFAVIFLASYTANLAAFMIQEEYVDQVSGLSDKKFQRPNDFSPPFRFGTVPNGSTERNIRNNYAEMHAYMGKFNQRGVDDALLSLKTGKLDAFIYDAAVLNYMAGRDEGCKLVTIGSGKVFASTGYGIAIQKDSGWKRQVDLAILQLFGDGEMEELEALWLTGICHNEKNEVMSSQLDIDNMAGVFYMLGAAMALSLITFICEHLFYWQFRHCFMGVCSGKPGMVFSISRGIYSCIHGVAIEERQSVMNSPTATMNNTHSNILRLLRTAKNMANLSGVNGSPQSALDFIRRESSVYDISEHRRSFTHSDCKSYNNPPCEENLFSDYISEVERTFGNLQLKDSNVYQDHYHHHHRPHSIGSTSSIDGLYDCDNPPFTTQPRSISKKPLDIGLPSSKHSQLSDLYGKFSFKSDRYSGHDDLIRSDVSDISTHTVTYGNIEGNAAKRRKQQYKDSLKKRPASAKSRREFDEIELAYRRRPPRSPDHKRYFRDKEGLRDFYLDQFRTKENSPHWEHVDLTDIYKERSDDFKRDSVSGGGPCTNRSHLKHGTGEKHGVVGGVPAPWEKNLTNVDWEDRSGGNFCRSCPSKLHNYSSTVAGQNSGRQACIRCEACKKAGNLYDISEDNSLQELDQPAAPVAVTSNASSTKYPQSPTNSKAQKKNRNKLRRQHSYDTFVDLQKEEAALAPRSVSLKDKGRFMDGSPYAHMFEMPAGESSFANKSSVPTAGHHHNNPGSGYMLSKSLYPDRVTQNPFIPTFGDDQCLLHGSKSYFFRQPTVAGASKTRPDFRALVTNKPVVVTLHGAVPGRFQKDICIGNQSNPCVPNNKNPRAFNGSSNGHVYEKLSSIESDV
GluR1, sequence (P19490 19-907): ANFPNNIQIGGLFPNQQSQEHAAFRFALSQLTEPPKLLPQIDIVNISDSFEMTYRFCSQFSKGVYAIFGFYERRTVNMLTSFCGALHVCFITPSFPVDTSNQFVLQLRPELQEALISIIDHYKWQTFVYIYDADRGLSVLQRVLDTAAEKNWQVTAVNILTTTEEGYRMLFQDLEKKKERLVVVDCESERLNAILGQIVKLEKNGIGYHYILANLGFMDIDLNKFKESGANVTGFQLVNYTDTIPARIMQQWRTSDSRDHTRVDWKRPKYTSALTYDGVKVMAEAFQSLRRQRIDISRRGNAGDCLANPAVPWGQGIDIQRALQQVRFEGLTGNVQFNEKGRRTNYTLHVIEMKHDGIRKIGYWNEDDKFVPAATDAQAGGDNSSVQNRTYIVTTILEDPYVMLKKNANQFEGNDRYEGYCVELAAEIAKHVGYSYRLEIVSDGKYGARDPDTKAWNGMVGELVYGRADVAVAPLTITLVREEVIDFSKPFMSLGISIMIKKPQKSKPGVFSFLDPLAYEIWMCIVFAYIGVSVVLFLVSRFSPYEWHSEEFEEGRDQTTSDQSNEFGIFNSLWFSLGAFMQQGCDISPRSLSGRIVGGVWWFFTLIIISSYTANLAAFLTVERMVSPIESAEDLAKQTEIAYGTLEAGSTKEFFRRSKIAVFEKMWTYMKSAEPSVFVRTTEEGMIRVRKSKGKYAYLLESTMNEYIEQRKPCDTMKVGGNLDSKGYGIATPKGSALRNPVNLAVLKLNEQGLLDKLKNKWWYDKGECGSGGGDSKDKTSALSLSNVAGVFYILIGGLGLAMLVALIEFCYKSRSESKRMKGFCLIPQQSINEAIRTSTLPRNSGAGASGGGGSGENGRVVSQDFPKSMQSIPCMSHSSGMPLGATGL
NR1/NR2D, sequence (Q62645 28-1323, other chains not shown): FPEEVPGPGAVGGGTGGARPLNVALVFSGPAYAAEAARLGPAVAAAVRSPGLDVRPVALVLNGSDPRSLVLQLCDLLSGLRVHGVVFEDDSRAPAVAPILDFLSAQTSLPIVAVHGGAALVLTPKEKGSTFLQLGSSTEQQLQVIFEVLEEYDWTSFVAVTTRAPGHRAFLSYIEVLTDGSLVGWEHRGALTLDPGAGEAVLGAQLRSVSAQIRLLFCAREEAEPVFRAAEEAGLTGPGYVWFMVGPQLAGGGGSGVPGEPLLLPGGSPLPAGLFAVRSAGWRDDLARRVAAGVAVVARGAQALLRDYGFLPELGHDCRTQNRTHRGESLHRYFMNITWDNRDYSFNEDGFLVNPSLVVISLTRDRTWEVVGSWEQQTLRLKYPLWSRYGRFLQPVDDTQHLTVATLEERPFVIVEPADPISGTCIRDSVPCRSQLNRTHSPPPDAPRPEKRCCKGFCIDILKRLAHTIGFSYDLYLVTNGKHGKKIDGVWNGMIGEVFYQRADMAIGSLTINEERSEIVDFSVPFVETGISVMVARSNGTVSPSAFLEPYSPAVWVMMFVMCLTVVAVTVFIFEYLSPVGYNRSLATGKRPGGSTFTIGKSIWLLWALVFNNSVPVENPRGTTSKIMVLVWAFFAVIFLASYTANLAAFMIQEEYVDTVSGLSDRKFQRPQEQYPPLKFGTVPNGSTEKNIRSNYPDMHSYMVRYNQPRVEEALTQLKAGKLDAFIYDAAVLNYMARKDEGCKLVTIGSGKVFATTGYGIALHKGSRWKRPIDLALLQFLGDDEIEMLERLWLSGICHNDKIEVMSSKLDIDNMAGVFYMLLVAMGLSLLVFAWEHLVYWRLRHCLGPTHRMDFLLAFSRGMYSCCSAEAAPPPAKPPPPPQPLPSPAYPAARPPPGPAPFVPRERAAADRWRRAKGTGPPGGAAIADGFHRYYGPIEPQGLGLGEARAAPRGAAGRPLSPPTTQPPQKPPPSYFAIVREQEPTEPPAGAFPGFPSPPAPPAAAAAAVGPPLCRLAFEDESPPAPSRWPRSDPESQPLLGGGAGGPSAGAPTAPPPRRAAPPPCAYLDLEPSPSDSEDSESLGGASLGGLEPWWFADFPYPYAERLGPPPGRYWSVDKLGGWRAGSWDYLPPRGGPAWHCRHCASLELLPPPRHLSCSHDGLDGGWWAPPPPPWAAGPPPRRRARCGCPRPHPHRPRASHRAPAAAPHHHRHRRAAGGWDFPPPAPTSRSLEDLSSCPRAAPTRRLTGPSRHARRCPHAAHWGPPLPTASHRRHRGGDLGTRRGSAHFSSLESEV

O=C(O)c1ccc(-n2c(/C=C/c3cccc([N+](=O)[O-])c3)nc3ccc(F)cc3c2=O)cc1 [Compound 42, (E)-4-(6-fluoro-2-(3-nitrostyryl)-4-oxoquinazolin-3(4H)-yl)benzoic acid]
IC50 (NR1/NR2C): 14 µM

O=C(O)c1ccc(-n2c(/C=C/c3cccc([N+](=O)[O-])c3)nc3cc4c(cc3c2=O)OCO4)cc1 [Compound 52, (E)-4-(6-(3-nitrostyryl)-8-oxo-[1,3]dioxolo[4,5-g]quinazolin-7(8H)-yl)benzoic acid]
GluR1/NR2D: (IC50 GluR1)/(IC50 NR2D) (NR1/NR2D): >8

O=C(O)c1ccc(-n2c(/C=C/c3ccc(O)cc3)nc3ccccc3c2=O)cc1 [Compound 30]
IC50 (NR1/NR2C): 50 µM

Cc1ccc(/C=C/c2nc3ccccc3c(=O)n2-c2ccc(C(=O)O)cc2)cc1 [Compound 33]
GluR1/NR2D: (IC50 GluR1)/(IC50 NR2D) (NR1/NR2D): >17 | IC50 (NR1/NR2C): 28 µM

COc1ccc(/C=C/c2nc3ccccc3c(=O)n2-c2ccc(C(=O)O)cc2)cc1 [Compound 24]
IC50 (NR1/NR2C): 42 µM

O=C(O)c1cccc(-n2c(/C=C/c3ccc([N+](=O)[O-])cc3)nc3ccc(I)cc3c2=O)c1 [Compound 73, (E)-3-(6-iodo-2-(4-nitrostyryl)-4-oxoquinazolin-3(4H)-yl)benzoic acid]
GluR1/NR2D: (IC50 GluR1)/(IC50 NR2D) (NR1/NR2D): >37 | NR2A/NR2D: (IC50 NR2A)/(IC50 NR2D) (NR1/NR2D): >37

Cc1nc2ccc(I)cc2c(=O)n1-c1ccc(C(=O)O)cc1 [Compound 78, 4-(6-Iodo-2-methyl-4-oxoquinazolin-3(4H)-yl)benzoic acid]
inhibitory activity (NR1/NR2D; concentrations up to 100 μM): total loss of inhibitory activity

COc1ccc2nc(/C=C/c3cccc(C(=O)O)c3)n(-c3ccc(C(=O)O)cc3)c(=O)c2c1 [Compound 62, (E)-3-(2-(3-(4-carboxyphenyl)-6-methoxy-4-oxo-3,4-dihydroquinazolin-2-yl)vinyl)benzoic acid]
GluR1/NR2D: (IC50 GluR1)/(IC50 NR2D) (NR1/NR2D): >2 | NR2A/NR2D: (IC50 NR2A)/(IC50 NR2D) (NR1/NR2D): >2

Cc1ccc2nc(CCc3ccccc3)n(-c3ccc(C(=O)O)cc3)c(=O)c2c1 [Compound 81, 4-(6-Methyl-4-oxo-2-phenethylquinazolin-3(4H)-yl)benzoic acid]
potency reduction on saturating the styryl linker (81 vs 80) (NR1/NR2D): 10 fold

O=C(O)c1ccc(-n2c(/C=C/c3ccc4c(c3)OCCO4)nc3ccccc3c2=O)cc1 [Compound 86]
GluR1/NR2D: (IC50 GluR1)/(IC50 NR2D) (NR1/NR2D): >18 | NR2A/NR2D: (IC50 NR2A)/(IC50 NR2D) (NR1/NR2D): >18

O=C(O)c1ccc(-n2c(/C=C/c3ccccc3C(F)(F)F)nc3ccccc3c2=O)cc1 [Compound 29]
GluR1/NR2D: (IC50 GluR1)/(IC50 NR2D) (NR1/NR2D): >10 | NR2A/NR2D: (IC50 NR2A)/(IC50 NR2D) (NR1/NR2D): >10 | IC50 (NR1/NR2C): 88 µM

COc1ccccc1/C=C/c1nc2ccccc2c(=O)n1-c1ccc(C(=O)O)cc1 [Compound 26]
IC50 (NR1/NR2C): 32 µM

N#Cc1ccc(/C=C/c2nc3ccccc3c(=O)n2-c2ccc(C(=O)O)cc2)cc1 [Compound 66]
GluR1/NR2D: (IC50 GluR1)/(IC50 NR2D) (NR1/NR2D): >9

COc1cccc(/C=C/c2nc3ccccc3c(=O)n2-c2ccc(C(=O)O)cc2)c1 [Compound 25]
IC50 (NR1/NR2C): 17 µM

O=C(O)c1ccc(-n2c(/C=C/c3cccc([N+](=O)[O-])c3)nc3cccc(Cl)c3c2=O)cc1 [Compound 36, (E)-4-(5-chloro-2-(3-nitrostyryl)-4-oxoquinazolin-3(4H)-yl)benzoic acid]
GluR1/NR2D: (IC50 GluR1)/(IC50 NR2D) (NR1/NR2D): >20 | NR2A/NR2D: (IC50 NR2A)/(IC50 NR2D) (NR1/NR2D): >20

COc1cccc(-n2c(/C=C/c3cccnc3)nc3ccc(I)cc3c2=O)c1 [Compound 90]
IC50 (NR1/NR2D): 200 µM

O=C(O)c1ccc(-n2c(/C=C/c3ccccc3)nc3ccccc3c2=O)cc1 [Compound 23]
IC50 (NR1/NR2C): 39 µM

(E)-4-(6,7-dimethoxy-2-(3-nitrostyryl)-4-oxoquinazolin-3(4H)-yl)benzoic acid [Compound 63]
GluR1/NR2D: (IC50 GluR1)/(IC50 NR2D) (NR1/NR2D): 7

COc1ccc2nc(/C=C/c3ccc(OC(C)=O)c(OC(C)=O)c3)n(-c3ccc(C(=O)O)cc3)c(=O)c2c1 [Compound 64, (E)-4-(2-(3,4-diacetoxystyryl)-6-methoxy-4-oxoquinazolin-3(4H)-yl)benzoic acid]
IC50 (NR1/NR2D): 52 µM | GluR1/NR2D: (IC50 GluR1)/(IC50 NR2D) (NR1/NR2D): >6 | NR2A/NR2D: (IC50 NR2A)/(IC50 NR2D) (NR1/NR2D): >6 | IC50 (GluR1): > 300 µM | IC50 (NR1/NR2A): > 300 µM | IC50 (NR1/NR2B): > 300 µM | IC50 (NR1/NR2C): 124 µM

C=CCOc1ccc(/C=C/c2nc3ccccc3c(=O)n2-c2ccc(C(=O)O)cc2)cc1 [Compound 69]
GluR1/NR2D: (IC50 GluR1)/(IC50 NR2D) (NR1/NR2D): >10 | NR2A/NR2D: (IC50 NR2A)/(IC50 NR2D) (NR1/NR2D): >10

O=C(O)c1ccc(-n2c(/C=C/c3cccc(C(F)(F)F)c3)nc3ccccc3c2=O)cc1 [Compound 28]
IC50 (NR1/NR2C): 8 µM

O=C(O)c1ccc(-n2c(/C=C/c3ccc([N+](=O)[O-])cc3)nc3ccc(I)cc3c2=O)cc1 [Compound 72, (E)-4-(6-iodo-2-(4-nitrostyryl)-4-oxoquinazolin-3(4H)-yl)benzoic acid]
solubility [1]: 10 µM (≈ 5.39 µg/mL) | response at saturating concentration, NR2D (fitted minimum) (NR1/NR2D): 26 % of control | GluR1/NR2D: (IC50 GluR1)/(IC50 NR2D) (NR1/NR2D): >220 | effect on GluR6 responses (GluR6): No significant effect | response at saturating concentration, NR2C (fitted minimum) (NR1/NR2C): 31 % of control

O=C(O)c1ccc(-n2c(/C=C/c3cccc([N+](=O)[O-])c3)nc3cc4ccccc4cc3c2=O)cc1 [Compound 50, (E)-4-(2-(3-nitrostyryl)-4-oxobenzo[g]quinazolin-3(4H)-yl)benzoic acid]
response at saturating concentration, NR2D (fitted minimum) (NR1/NR2D): 20 % of control | response at saturating concentration, NR2A (fitted minimum) (NR1/NR2A): 68 % of control | response at saturating concentration, NR2B (fitted minimum) (NR1/NR2B): 50 % of control | response at saturating concentration, NR2C (fitted minimum) (NR1/NR2C): 26 % of control

Cc1cccc(/C=C/c2nc3ccccc3c(=O)n2-c2ccc(C(=O)O)cc2)c1 [Compound 34]
GluR1/NR2D: (IC50 GluR1)/(IC50 NR2D) (NR1/NR2D): >16 | IC50 (NR1/NR2C): 28 µM

COc1ccc2nc(/C=C/c3ccc([N+](=O)[O-])cc3)n(-c3cccc(C(=O)O)c3)c(=O)c2c1 [Compound 76, (E)-3-(6-methoxy-2-(4-nitrostyryl)-4-oxoquinazolin-3(4H)-yl)benzoic acid]
GluR1/NR2D: (IC50 GluR1)/(IC50 NR2D) (NR1/NR2D): >19

O=C(O)c1ccc(-n2c(/C=C/c3ccc([N+](=O)[O-])cc3)nc3c(Cl)cc(Cl)cc3c2=O)cc1 [Compound 41, (E)-4-(6,8-dichloro-2-(4-nitrostyryl)-4-oxoquinazolin-3(4H)-yl)benzoic acid]
GluR1/NR2D: (IC50 GluR1)/(IC50 NR2D) (NR1/NR2D): >50 | NR2A/NR2D: (IC50 NR2A)/(IC50 NR2D) (NR1/NR2D): >50

COc1ccc2nc(/C=C/c3cccc([N+](=O)[O-])c3)n(-c3ccc(C(=O)O)cc3)c(=O)c2c1 [Compound 46, (E)-4-(6-methoxy-2-(3-nitrostyryl)-4-oxoquinazolin-3(4H)-yl)benzoic acid]
selectivity for NR2C/D (NR2D) over NR2A/B (NR1/NR2D): > 50 fold | effect on GluR6 responses (GluR6): No significant effect

O=C(O)c1ccc(-n2c(/C=C/c3cccc([N+](=O)[O-])c3)nc3ccccc3c2=O)cc1 [Compound 2, (E)-4-(2-(3-nitrostyryl)-4-oxoquinazolin-3(4H)-yl)benzoic acid]
extent of inhibition of NR1/NR2D responses (NR1/NR2D): completely | voltage dependence of inhibition at NR1/NR2D (NR1/NR2D; 10 μM compound, -40 mV vs +40 mV): voltage-independent | mode of inhibition at NR1/NR2D (NR1/NR2D; 30 μM compound, glutamate/glycine raised from 100/30 μM to 1000/300 μM): non-competitive | fold more potent (lower fitted IC50) at NMDA receptors than AMPA receptors (GluR1): 4-5 fold | extent of inhibition of NR1/NR2C responses (NR1/NR2C): completely | mode of inhibition at NR1/NR2C (NR1/NR2C): non-competitive | voltage dependence of inhibition at NR1/NR2C (NR1/NR2C): voltage-independent

O=C(O)c1ccc(-n2c(/C=C/c3ccc4ccccc4c3)nc3ccccc3c2=O)cc1 [Compound 82]
GluR1/NR2D: (IC50 GluR1)/(IC50 NR2D) (NR1/NR2D): >50

O=C(O)c1ccc(-n2c(/C=C/c3cccc([N+](=O)[O-])c3)nc3ccc(-c4ccccc4)cc3c2=O)cc1 [Compound 49, (E)-4-(2-(3-nitrostyryl)-4-oxo-6-phenylquinazolin-3(4H)-yl)benzoic acid]
response at saturating concentration, NR2D (fitted minimum) (NR1/NR2D): 14 % of control | response at saturating concentration, NR2A (fitted minimum) (NR1/NR2A): 68 % of control | response at saturating concentration, NR2B (fitted minimum) (NR1/NR2B): 51 % of control | response at saturating concentration, NR2C (fitted minimum) (NR1/NR2C): 22 % of control

COc1ccccc1-n1c(/C=C/c2ccccc2[N+](=O)[O-])nc2ccccc2c1=O [Compound 3, (E)-3-(2-methoxyphenyl)-2-(2-nitrostyryl)quinazolin-4(3H)-one]
extent of inhibition of NR1/NR2D responses (NR1/NR2D): completely | fold more potent (lower fitted IC50) at NMDA receptors than AMPA receptors (GluR1): 4-5 fold | extent of inhibition of NR1/NR2C responses (NR1/NR2C): completely

O=C(O)c1ccc(-n2c(/C=C/c3ccc(C(F)(F)F)cc3)nc3ccccc3c2=O)cc1 [Compound 27]
IC50 (NR1/NR2C): 23 µM

COc1ccc2nc(/C=C/c3ccc([N+](=O)[O-])cc3)n(-c3ccc(C(=O)O)cc3)c(=O)c2c1 [Compound 75, (E)-4-(6-methoxy-2-(4-nitrostyryl)-4-oxoquinazolin-3(4H)-yl)benzoic acid]
GluR1/NR2D: (IC50 GluR1)/(IC50 NR2D) (NR1/NR2D): >42
